US9714247B2, “Multiple kinase pathway inhibitors” (Mannkind Corporation, priority 2012, dated 2017)
Read-outs that look alike come from different tables or passages of the source.

Key:
[1] = system: DoHH2; experiment: CellTiter-Glo proliferation/viability assay; format: cell-based, human
[2] = system: Ramos; experiment: CellTiter-Glo proliferation/viability assay; format: cell-based, human; details: read-out: Ramos EC50
[3] = biological target: T1, Lyn (Homo sapiens (Human), UniProt P07948); experiment: biochemical
[4] = biological target: T2, Src (Homo sapiens (Human), UniProt P12931); details: read-out: Src IC50
[5] = system: RBL-2H3 cells; experiment: Degranulation (β-hexosaminidase release) colorimetric assay; format: cell-based; details: Rattus norvegicus, RBL-2H3, IgE / DNP-BSA
Text: Crosslinking of IgE receptors leads to induction of intracellular signal transduction pathways and degranulation of mast cells and basophils leading to the release of histamine, serotonin and cytokines that constitutes an allergic reaction. […] One of the factors secreted on induction of degranulation is β-hexosaminidase. A colorimetric assay using 4-nitrophenyl N-acetyl-3-D-glucosaminide (Sigma-Aldrich) as a substrate was used to estimate the amount of enzyme secreted upon degranulation. In brief, RBL-2H3 (ATCC # CRL 2256) cells were plated overnight in the presence of IgE (monoclonal anti-dinitrophenyl antibody from Sigma-Aldrich). The next day, cells were treated with compounds in cell culture media, washed and treated with DNP-BSA for 1 hour (Sigma-Aldrich) in Tyrodes's buffer to induce degranulation. The level of 3-hexosaminidase was analyzed in cell-free supernates and cell lysates and the amount of β-hexosaminidase released was calculated. EC50 values were generated using varying concentrations of inhibitors. […] Thus amino naphthyridinones can be used to inhibit immunologic functions such as degranulation.

[6] = system: phosphorylation of SFKs in Ramos cells; experiment: SFK phosphorylation (Tyr 416) by flow cytometry; format: cell-based, human; details: Homo sapiens, 0.3 uM, flow cytometry, SFK phosphorylated at Tyr 416, read-out: pSRC % inhibition
Method: Ramos cell lysates from stimulated and unstimulated cells were analyzed for the levels of phosphorylated SRC family members. As described in Example 82 (above), cells were pretreated for 2 hours with an amino naphthyridinones and then stimulated with anti-IgM antibody and H2O2, protein lysates were prepared, quantified and used for Western blotting. A commercially available antibody that detects Src phosphorylated at Tyr 416 (Cell Signalling) and may cross-react with other Src family members such as Lyn, Fyn, Lck, Yes and Hck when phosphorylated at equivalent sites was used for Western blot analysis. The molecular weights of SFK family members are quite similar (in the 55-60 kDa range) and different family members cannot be resolved by the conditions used for the Western blot. […] The procedure can be similarly adapted for flow cytometric analysis as with the PLC-γ2 assay in Example 82. Ramos cells were incubated with Compound 1 for 2 hrs in RPMI media with 5% FBS prior to stimulation stimulated with H2O2/anti-IgM/F(Ab) for 10 minutes. Cells were evaluated by FACS analysis using anti-pSRC antibody and FITC-conjugated goat anti-rabbit secondary antibody following overnight storage at 4° C. in BD perm/wash buffer.
Ramos cells were prepared for flow cytometry analysis as described in example 82, and stained with a commercially available antibody that detects SFK phosphorylated at Tyr 416, followed by Alexa Fluor 488 conjugated secondary antibody. […] Thus amino naphthyridinones are useful in the inhibition of the phosphorylation of SFKs.

[7] = system: DoHH2 cells; details: treated 24 hours
[8] = system: PLCγ2 phosphorylation in Ramos cells; experiment: PLCγ2 phosphorylation by flow cytometry; format: cell-based, human; details: Homo sapiens, flow cytometry; for inhibition at 0.3 µM: anti-phospho PLCγ2 (Tyr759), read-out: pPLCγ % inhibition; for EC50: anti-phospho PLCγ2 (Tyr1217), four concentrations, read-out: Inhibition of phosphorylation of PLC-γ2 EC50
Method: Ramos cells were cultured in RPMI 1640 media with 10% FBS and were starved overnight (18 h) in 1% FBS containing media and on the next day pretreated with inhibitor for 2 h before stimulation. Cells were stimulated to induce BTK network dependent signal transduction pathways using mouse anti-human IgM (final concentration 10 ug/ml; Invitrogen) antibodies and 3.3 mM H2O2 mixture for 2 minutes followed by F(Ab) fragment that cross-linked the anti-IgM antibody (final concentration 10 ug/ml), and 3.3 mM H2O2 for 8 minutes. Cell lysates were prepared in lysis buffer containing protease and phosphatase inhibitors, quantified using the BCA protein assay kit (Pierce) and used for Western blotting. Antibodies specifically targeted to the molecules of interest, PLCγ2 phosphorylated at Tyr1217 and total PLCγ2, (Cell Signaling Technology) were used in a standard Western blotting procedure.
PLCγ2 phosphorylation was also assessed by flow cytometry. Cells were similarly stimulated and following stimulation, Cytofix buffer (Becton Dickinson) was added, cells were centrifuged and the cell pellets incubated on ice with Phosflow perm buffer III (Becton Dickinson). These cell pellets were washed with Perm/Wash buffer (Becton Dickinson); resuspended and labeled for flow cytometry analysis in a staining mixture containing Perm/Wash buffer and PE-labeled anti-phosphoPCLγa2 (Tyr1217) antibody (Becton Dickinson). The samples were washed with Perm/Wash buffer and analyzed on a FACS Calibur flow cytometer using CellQuest Pro software. As mentioned for the Western blot experiments, phosphorylation of PLCγ2 at Tyr1217 along with Tyr753, Tyr759 and Tyr1197 is correlated with increased PLCγ2 activity. The readout for BTK network signaling was inhibition of phosphorylation of PLCγ2. Cells were gated to exclude dead or dying cells. Fluorescence signals from the antibody staining were plotted in logarithmic units and data was analyzed using Cellquest Pro software. […] An ED50 was calculated based on the geometric mean of fluorescence intensity observed for treatment for four different concentrations of the inhibitors (see Table 7 and FIG. 6). […] Thus treatment with amino naphthyridinones inhibits PLCγ2 phosphorylation consistent with inhibition of BTK and/or LYN activity.
Following stimulation, cells were prepared for analysis by flow cytometry as described above. In short, cells were fixed and permeabilized using Cytofix buffer, Phosflow perm buffer and Perm/Wash buffer (Becton Dickinson). The cells were stained with PE-labeled anti-phosphoPCLγ2 (Tyr759) antibody (Becton Dickinson) and analyzed on a FACS Calibur flow cytometer using CellQuest Pro software. […] Thus aminonaphthyridinones are useful for the indirect inhibition of PLCγ2 phosphorylation.

[9] = biological target: T1, Lyn; details: read-out: Lyn IC50
[10] = system: DoHH2; experiment: Apoptosis by flow cytometry (Annexin V / 7AAD); format: cell-based, human; details: Table 6; for Percent Apoptosis at 2 uM: DOHH2, 2 uM; for Percent Apoptosis at 5 uM: DOHH2, 5 uM
Text: Activation of Tec family kinases including BTK, and/or Src kinase family members, regulates cell survival and cell death in normal B cells, lymphomas, and solid tumors. Apoptosis is a programmed cell death characterized by specific changes in cell morphology. […] Staurosporine was used as a positive control for apoptosis. […] Table 6 illustrates that several amino naphthyridinones induce significant apoptosis in DoHH2 cells.

[11] = biological target: BTK (Homo sapiens (Human), UniProt Q06187)
[12] = biological target: T2, Src; experiment: biochemical
[13] = Homo sapiens, DOHH-2, 48 hrs, read-out: DoHH2 EC50
[14] = Homo sapiens, DOHH-2, Table 4, DoHH2 cells, read-out: EC50 (Proliferation)

T1 sequence (P07948 whole entry): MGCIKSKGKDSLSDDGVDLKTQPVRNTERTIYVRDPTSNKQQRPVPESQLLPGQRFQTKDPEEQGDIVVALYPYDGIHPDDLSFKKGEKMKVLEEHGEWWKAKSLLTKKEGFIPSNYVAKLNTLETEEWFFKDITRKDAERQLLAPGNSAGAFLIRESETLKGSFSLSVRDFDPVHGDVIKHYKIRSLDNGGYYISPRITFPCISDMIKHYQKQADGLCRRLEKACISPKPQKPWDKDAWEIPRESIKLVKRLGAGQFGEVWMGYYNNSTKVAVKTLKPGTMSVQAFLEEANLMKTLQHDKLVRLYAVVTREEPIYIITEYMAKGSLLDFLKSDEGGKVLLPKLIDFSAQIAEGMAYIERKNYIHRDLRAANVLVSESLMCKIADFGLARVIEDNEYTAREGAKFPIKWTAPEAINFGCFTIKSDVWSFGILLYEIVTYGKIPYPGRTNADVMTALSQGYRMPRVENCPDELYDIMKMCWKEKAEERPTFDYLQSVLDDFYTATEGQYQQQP
T2 sequence (P12931 whole entry, looked up): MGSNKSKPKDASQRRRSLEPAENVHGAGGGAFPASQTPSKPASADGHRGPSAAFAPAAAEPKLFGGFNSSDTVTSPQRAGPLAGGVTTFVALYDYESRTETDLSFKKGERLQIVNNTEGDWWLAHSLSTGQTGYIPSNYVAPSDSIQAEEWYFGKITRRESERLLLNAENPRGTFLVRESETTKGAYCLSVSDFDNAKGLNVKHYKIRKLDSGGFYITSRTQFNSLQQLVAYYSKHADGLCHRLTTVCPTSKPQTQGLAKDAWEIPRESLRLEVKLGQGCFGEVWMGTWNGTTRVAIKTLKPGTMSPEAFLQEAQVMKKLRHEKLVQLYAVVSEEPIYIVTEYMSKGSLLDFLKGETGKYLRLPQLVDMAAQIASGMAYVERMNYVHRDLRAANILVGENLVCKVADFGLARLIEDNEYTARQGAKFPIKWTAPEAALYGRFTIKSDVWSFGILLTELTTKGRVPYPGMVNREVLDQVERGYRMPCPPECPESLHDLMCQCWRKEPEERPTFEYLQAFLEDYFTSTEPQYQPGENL
Sequence of BTK (Q06187 whole entry): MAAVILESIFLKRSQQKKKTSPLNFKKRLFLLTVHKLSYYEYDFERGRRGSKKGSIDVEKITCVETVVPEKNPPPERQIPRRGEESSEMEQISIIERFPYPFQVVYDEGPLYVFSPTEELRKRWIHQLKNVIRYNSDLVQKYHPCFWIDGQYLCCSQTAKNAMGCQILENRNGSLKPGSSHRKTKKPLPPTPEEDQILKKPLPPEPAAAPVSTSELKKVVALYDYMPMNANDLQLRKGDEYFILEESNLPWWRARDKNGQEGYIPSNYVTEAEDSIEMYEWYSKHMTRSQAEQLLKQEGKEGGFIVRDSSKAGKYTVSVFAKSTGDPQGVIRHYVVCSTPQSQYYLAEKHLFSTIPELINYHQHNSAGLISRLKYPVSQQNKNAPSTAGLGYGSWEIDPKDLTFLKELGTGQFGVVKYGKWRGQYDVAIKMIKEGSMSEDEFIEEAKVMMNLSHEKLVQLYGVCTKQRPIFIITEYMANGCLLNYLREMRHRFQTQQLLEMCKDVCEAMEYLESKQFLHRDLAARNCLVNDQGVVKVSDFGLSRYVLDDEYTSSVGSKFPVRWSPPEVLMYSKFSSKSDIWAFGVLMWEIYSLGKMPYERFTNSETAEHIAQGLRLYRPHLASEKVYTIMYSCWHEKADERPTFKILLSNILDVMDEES

| EC50 ([2]; 48 hrs) [nM] | IC50 ([3]; Lyn IC50) [nM] | IC50 [4] [nM] | EC50 [5] [nM] | IC50 [9] [nM] | EC50 ([2]; Homo sapiens, Ramos, 48 hrs) [nM] | IC50 [3] [nM] | IC50 [11] [nM] | IC50 ([11]; read-out: BTK IC50) [nM] | IC50 [12] [nM] | EC50 ([2]; Homo sapiens, Ramos, 48 h) [nM] | EC50 [8] [nM] | Compound | EC50 ([1]; 48 hrs, read-out: DoHH2 EC50) [nM] | inhibition at 0.3 µM [6] [%] | EC50 [1, 13] [nM] | EC50 [1, 14] [nM] | Effect on Cell Cycle [7] | inhibition at 0.3 µM [8] [%] | Percent Apoptosis at 2 uM [10] [%] | Percent Apoptosis at 5 uM [10] [%] |
| --- | --- | --- | --- | --- | --- | --- | --- | --- | --- | --- | --- | --- | --- | --- | --- | --- | --- | --- | --- | --- |
| 1000 to 10000 | < 100 | < 100 | > 5000 | – | – | – | – | – | – | – | – | O=c1c(-c2c(F)cccc2F)cc2cnc(Nc3ccc(F)cn3)cc2n1C1CCOC1 (single isomer, unassigned) [Compound 142, (R or S)-3-(2,6-difluorophenyl)-7-((5-fluoropyridin-2-yl)amino)-1-(tetrahydrofuran-3-yl)-1,6-naphthyridin-2(1H)-one] | < 1000 | – | – | – | – | – | – | – |
| – | – | < 100 | – | 100 to 1000 | 1000 to 10000 | 100 to 1000 | 100 to 1000 | 100 to 1000 | – | – | – | CCN(CC)CCOc1ccc(Nc2cc3c(cn2)cc(-c2ccccc2)c(=O)n3C2CCN(C)CC2)nc1 [Compound 16, 7-((5-(2-(diethylamino)ethoxy)pyridin-2-yl)amino)-1-(1-methylpiperidin-4-yl)-3-phenyl-1,6-naphthyridin-2(1H)-one] | – | -1 | < 1000 | < 1000 | G1 Arrest | 46 | 32.57 | 58.99 |
| – | 100 to 1000 | – | – | – | – | – | – | < 100 | 100 to 1000 | 1000 to 10000 | – | CCN(CC)CCOc1ccc(Nc2cc3c(cn2)cc(-c2ccccc2)c(=O)n3C(C)C)nc1 [Compound 22, 7-(5-(2-(diethylamino)ethoxy)pyridin-2-ylamino)-1-isopropyl-3-phenyl-1,6-naphthyridin-2(1H)-one] | – | – | < 1000 | < 1000 | G1 Arrest | – | 21.68 | 25.8 |
| – | – | < 100 | – | < 100 | 1000 to 10000 | – | – | < 100 | – | – | – | CCN(CC)CCOc1ccc(Nc2cc3c(cn2)cc(-c2ccccc2)c(=O)n3CCOC)nc1 [Compound 24, 7-(5-(2-(diethylamino)ethoxy)pyridin-2-ylamino)-1-(2-methoxyethyl)-3-phenyl-1,6-naphthyridin-2(1H)-one] | – | – | < 1000 | – | – | – | 34.76 | 46.4 |
| – | – | – | – | – | – | 1000 to 5000 | – | – | 1000 to 5000 | 1000 to 10000 | 280 | CCN(CC)CCOc1ccc(Nc2cc3c(cn2)cc(-c2ccccc2)c(=O)n3C2CCC2)nc1 [Compound 25, 1-cyclobutyl-7-(5-(2-(diethylamino)ethoxy)pyridin-2-ylamino)-3-phenyl-1,6-naphthyridin-2(1H)-one] | – | 26 | < 1000 | < 1000 | G1 Arrest | 61 | 26.94 | 20.29 |
| – | – | – | – | – | 1000 to 10000 | 100 to 1000 | – | < 100 | 100 to 1000 | – | – | CCN(CC)CCOc1ccc(Nc2cc3c(cn2)cc(-c2ccccc2)c(=O)n3C2CC2)nc1 [Compound 27, 1-cyclopropyl-7-(5-(2-(diethylamino)ethoxy)pyridin-2-ylamino)-3-phenyl-1,6-naphthyridin-2(1H)-one] | – | – | < 1000 | < 1000 | G1 Arrest | – | 37.05 | 54.19 |
| – | – | < 100 | – | < 100 | – | – | – | – | – | 1000 to 10000 | – | CCN(CC)CCOc1ccc(Nc2cc3c(cn2)cc(C(C)C)c(=O)n3C(C)C)nc1 [Compound 34, 7-[5-(2-Diethylamino-ethoxy)-pyridin-2-ylamino]-1,3-diisopropyl-1H-[1,6]naphthyridin-2-one] | – | – | – | – | No Arrest | – | 19.54 | 46.27 |
| – | – | < 100 | – | < 100 | 1000 to 10000 | – | – | – | – | – | 190 | CCn1c(=O)c(-c2ccccc2)cc2cnc(Nc3ccc(N4CCN(C)CC4)cn3)cc21 [Compound 43, 1-Ethyl-7-[5-(4-methyl-piperazin-1-yl)-pyridin-2-ylamino]-3-phenyl-1H-[1,6]naphthyridin-2-one] | – | – | < 1000 | – | – | – | 27.26 | 29.38 |
| – | – | – | – | < 100 | – | – | – | < 100 | 100 to 1000 | 1000 to 10000 | – | CCn1c(=O)c(-c2c(F)cccc2F)cc2cnc(Nc3ccc(F)cn3)cc21 [Compound 75, 3-(2,6-difluorophenyl)-1-ethyl-7-((5-fluoropyridin-2-yl)amino)-1,6-naphthyri-din-2 (1H)-one] | – | – | < 1000 | < 1000 | G1 Arrest | – | 35.66 | 39.47 |
| – | – | < 100 | 5490 | < 100 | > 10000 | – | – | < 100 | – | – | – | O=c1c(-c2c(F)cccc2F)cc2cnc(Nc3ccc(F)cn3)cc2n1CCN1CCOCC1 [Compound 133, 3-(2,6-difluorophenyl)-7-((5-fluoropyridin-2-yl)amino)-1-(2-morpholinoethyl)-1,6-naphthyridin-2(1H)-one] | – | – | < 1000 | – | – | – | – | – |
